A short description of data set [1]: in vitro. Format: cell-based. As to conditions: mouse, l929 cells. As to the method: (§1) TNF causes lysis at low concentrations in sensitive cell lines. A cell line, known to be sensitive to TNF, was challenged with the cytokine in the presence of vinigrol and the reduction in cell mortality (as measured by cell staining) quantified in a manner similar to the method of Matthews, Immunology, 48, 321 (1982). A measurement of the cytotoxicity of vinigrol at the various concentrations was also carried out. L929 cells (4×10^4 /well) were incubated in RPMI 1640 medium containing 10ng/ml TNF, 0.05% lactalbumin hydrolysate and 1μg/ml actinomycin D plus the stated concentration of vinigrol overnight at […]. Cells were washed, fixed with methanol, stained with crystal violet and the cell density quantified by measuring absorbance at 590nm. The cytotoxicity of the samples was determined using the above method but excluding the TNF, in which experiments cell death would be due to the added vinigrol.

Data set [2] deals with TNF-receptor. Kind of data set: TNF-receptor binding assay: binding of [125 I]-TNF to intact HL 60 cells. As to conditions: [125 I]-TNF 700pM, 2 hours at room temperature. As for the experimental part:
An in-vitro binding assay, based upon the measurement of binding of [^125 I]-TNF to intact cells, was used to measure the TNF/vinigrol interaction. The assay is similar to that of Imamura et al, J. Biol. Chem, 263, 10247-10253 (1988). More particularly, HL 60 cells (ATCC CCL 240) were grown in RPMI 1640 medium containing 10% foetal calf serum (FCS) and 1mM glutamine to a density of 1×10^6 /ml and harvested by centrifugation at 150g for 10 minutes. Cells were resuspended to a density of 2×10^7 /ml in RPMI 1640 containing 1% bovine serum albumin. [^125 I]-TNF was diluted to 2.1nM in the above buffer containing 0.6% sodium azide. Non-specific binding was estimated by measuring the binding in the presence of a 100 fold excess of unlabelled TNF. [^125 I]-TNF, final concentration 700pM, vinigrol at the stated concentration and cells at a density of 5×10^6 /ml were incubated in the above buffer for 2 hours at room temperature. The reaction was terminated by filtering onto a LKB filter mat (1205-401) followed by extensive washing with phosphate-buffered saline: The filter mat was counted for radioactivity to determine the quantity of bound [^125 I)-TNF.

Data set [3] has as its system L929 cells. Kind of data set: cells. Format: cell-based. The conditions noted are these: Mus musculus, L929, read-out: Inhibition of TNF-induced cytotoxicity. As to the method:
as §1

Broadly, the inhibition is the change of the read-out against control, counted positive when it falls.

Turning to `CC(C)C1CCC(C)C2CCC(C)C3(O)C1C=C(CO)C(O)C23` (stereo not drawn) [Vinigrol], in data set [1], the cytotoxicity at 3.1 µM amounted to 30%, the cytotoxicity at 15.5 µM was 0% and the cytotoxicity at 77.5 µM is 7%. Further, in data set [2] (vinigrol 3.1 μM), the “Inhibition of [125 I]-TNF-binding” value is 8%. Further, the “Inhibition of [125 I]-TNF-binding” value in data set [2] (vinigrol 31 μM) was found to be 12%. Moreover, the “Inhibition of [125 I]-TNF-binding” value in data set [2] (vinigrol 310 μM) is listed as 100%. Moreover, in data set [3], the inhibition at 3.1 µM was 91%, the inhibition at 15.5 µM was 100% and the inhibition at 77.5 µM turned out to be 100%.

The record behind these values is US5306732A, “Tumor necrosis factor antagonist” (Xenova Limited, priority 1989, dated 1994).
